# From ChEMBL document CHEMBL1201862, “PubChem BioAssay data set” (2004)
# Activity calls are given as the source filed them.
# Experiments:
# [1] = Shn3 3'UTR reporter inhibitors, dose response, cell-based, Clone20 osteoblasts, firefly luciferase, cherry-picked (AID 624132); assay type: functional;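 note: firefly luciferase luminescence from reporter carrying the Shn3 3'UTR in osteoblasts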
# [2] = HepG2 cell cytotoxicity, dose response, cytotoxicity control for Shn3 inhibitor project, CellTiter-Glo, cherry-picked (AID 624134); assay type: functional, cell-based
# [3] = control 3'UTR Renilla luciferase suppression, dose response, counter-screen for Shn3 inhibitor project, cell-based, Clone20-Shn3RL, cherry-picked (AID 624133); assay type: functional
# [4] = reduction of Shn3 3'UTR firefly luciferase signal, dose response, Schnurri-3 inhibitor project, cell-based, Clone20 osteoblasts, cherry-pick, set 2 (AID 720490); assay type: functional;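 note: actives lower the luminescence signal as inhibitors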
# [5] = target: T1, Microphthalmia-associated transcription factor (Homo sapiens, UniProt O75030); assay: TRPM1 promoter luciferase signal decrease, dose response, MITF inhibitor project, cell-based, SK-MEL-5, cherry-picked, set 3 (AID 493073); assay type: functional
# T1 sequence (O75030 whole entry): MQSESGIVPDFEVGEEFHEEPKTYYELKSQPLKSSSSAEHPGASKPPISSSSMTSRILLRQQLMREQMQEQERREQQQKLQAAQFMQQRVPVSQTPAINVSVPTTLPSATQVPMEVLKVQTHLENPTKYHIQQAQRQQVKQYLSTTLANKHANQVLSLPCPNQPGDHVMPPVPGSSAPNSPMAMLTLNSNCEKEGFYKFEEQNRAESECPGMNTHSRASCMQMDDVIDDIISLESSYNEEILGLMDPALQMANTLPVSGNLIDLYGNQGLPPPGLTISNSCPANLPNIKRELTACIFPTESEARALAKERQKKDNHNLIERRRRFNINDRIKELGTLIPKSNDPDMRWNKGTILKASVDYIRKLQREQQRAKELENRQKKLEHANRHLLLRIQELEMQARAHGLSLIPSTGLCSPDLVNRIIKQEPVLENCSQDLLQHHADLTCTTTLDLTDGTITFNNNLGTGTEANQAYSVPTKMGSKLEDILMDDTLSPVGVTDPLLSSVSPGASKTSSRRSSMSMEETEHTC
# Kallikrein-7 = Kallikrein-7 (Homo sapiens, UniProt P49862); assay: Fluorescence Intensity-based biochemical primary high throughput dose response assay to identify activators of kallikrein-7 (K7) zymogen.
# Kallikrein-7, sequence (P49862 whole entry): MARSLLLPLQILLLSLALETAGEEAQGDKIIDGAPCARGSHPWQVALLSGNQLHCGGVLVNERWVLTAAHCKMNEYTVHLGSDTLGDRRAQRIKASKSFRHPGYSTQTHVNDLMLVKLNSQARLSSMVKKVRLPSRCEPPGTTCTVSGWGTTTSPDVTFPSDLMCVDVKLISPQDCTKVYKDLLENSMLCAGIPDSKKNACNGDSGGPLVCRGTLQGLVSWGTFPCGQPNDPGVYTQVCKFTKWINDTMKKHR
# [6] = cytotoxicity in primary human melanocytes, dose response, cytotoxicity control, cell-based, plate reader, dry powder (AID 651920); assay type: functional
# [7] = A375 melanoma cell cytotoxicity, dose response, counter-screen for MITF inhibitor project, CellTiter-Glo luminescence, dry powder, set 2 (AID 624489); assay type: functional, cell-based; settings: A-375;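 note: actives are compounds lowering A375 viability meaning general cytotoxicity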
# [8] = Vero 76 cell cytotoxicity, dose response, cytotoxicity control, set 3 (AID 602439); assay type: functional; settings: Venezuelan equine encephalitis virus
# [9] = target: Protein disulfide-isomerase (Homo sapiens, UniProt P07237); assay: PDI inhibitors, insulin turbidity readout, confirmation, biochemical, dry powder samples, set 2 (AID 652146)
# Protein disulfide-isomerase, sequence (P07237 whole entry): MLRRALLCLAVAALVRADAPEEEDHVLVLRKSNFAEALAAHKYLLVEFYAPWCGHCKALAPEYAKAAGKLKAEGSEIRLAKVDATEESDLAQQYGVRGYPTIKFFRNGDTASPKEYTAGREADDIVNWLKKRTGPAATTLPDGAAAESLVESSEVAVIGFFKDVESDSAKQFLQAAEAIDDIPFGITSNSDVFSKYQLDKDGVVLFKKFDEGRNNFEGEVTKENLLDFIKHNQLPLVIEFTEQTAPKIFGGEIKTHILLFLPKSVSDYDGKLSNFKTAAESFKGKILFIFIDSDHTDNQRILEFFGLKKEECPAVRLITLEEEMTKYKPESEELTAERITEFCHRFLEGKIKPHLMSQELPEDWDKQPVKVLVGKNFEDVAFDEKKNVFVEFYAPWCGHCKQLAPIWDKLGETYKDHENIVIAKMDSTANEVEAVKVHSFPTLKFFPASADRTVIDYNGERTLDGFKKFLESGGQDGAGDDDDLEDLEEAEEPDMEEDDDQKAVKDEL
# [10] = Late stage assay provider results from the probe development effort to identify selective inhibitors of heat shock protein 90 (HSP90): Absorbance-based cell proliferation assay in MCF7 cells.; assay type: functional
# [11] = Late stage assay provider results from the probe development effort to identify selective inhibitors of heat shock protein 90 (HSP90): Absorbance-based cell proliferation assay in SKBR3 cells.; assay type: functional; settings: SK-BR-3
# Streptococcus = assay: Group A Streptococcus viability loss, dose response, counter-screen for streptokinase expression inhibitor project, luminescence, BacTiterGlo (AID 1915); assay type: functional, organism-based;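 note: potency for reduction of bacterial viability or growth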
# Streptokinase A = target: T2, Streptokinase A (Streptococcus pyogenes serotype M1, UniProt P10520); assay: S. pyogenes streptokinase expression inhibitors, potency, dose response, plasminogen activation absorbance, OD405 (AID 1914); assay type: functional, Streptococcus pyogenes M1 GAS;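 note: secreted streptokinase activity via plasminogen activation per viability signal from cell pellet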
# T2 sequence (P10520 whole entry): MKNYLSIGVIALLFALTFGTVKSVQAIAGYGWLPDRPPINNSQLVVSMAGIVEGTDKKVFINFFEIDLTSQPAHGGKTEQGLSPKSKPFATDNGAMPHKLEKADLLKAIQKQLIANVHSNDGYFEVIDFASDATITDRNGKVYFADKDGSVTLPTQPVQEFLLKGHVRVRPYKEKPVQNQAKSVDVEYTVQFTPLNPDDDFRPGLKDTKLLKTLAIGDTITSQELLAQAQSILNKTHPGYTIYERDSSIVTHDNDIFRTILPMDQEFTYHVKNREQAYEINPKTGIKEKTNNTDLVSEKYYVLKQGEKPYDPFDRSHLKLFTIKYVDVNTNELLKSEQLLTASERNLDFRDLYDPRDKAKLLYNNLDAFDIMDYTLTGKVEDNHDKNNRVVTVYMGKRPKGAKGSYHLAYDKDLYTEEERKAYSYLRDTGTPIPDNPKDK
# [12] = HepG2 cell cytotoxicity, dose response, cytotoxicity control, ATP luminescence, cherry-pick, activator set 2 (AID 1053143); assay type: functional, cell-based
# [13] = tested on: Streptococcus sp. 'group A'; assay: growth inhibition of control SK(-) GAS strain, dose response, counter-screen for streptokinase expression inhibitor project, luminescence, kanamycin, BacTiterGlo, confirmation (AID 1900); assay type: functional, organism-based
# INS1 = assay: beta cell apoptosis inhibitors, cytokine rescue, dose response, luminescence, retest (AID 449756); assay type: functional, cell-based; settings: Rattus norvegicus;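 note: cell death triggered by IL-1 beta plus TNF-alpha plus IFN-gamma mixture; protective hits raise ATP signal compared with cytokine alone wells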
# Caspase-6 = Caspase-6 (Homo sapiens, UniProt P55212); assay: human caspase-6 inhibitors, dose response, biochemical, VEID-R110 fluorescence, cherry-pick (AID 720632)
# Caspase-6, sequence (P55212 24-179 limits assumed): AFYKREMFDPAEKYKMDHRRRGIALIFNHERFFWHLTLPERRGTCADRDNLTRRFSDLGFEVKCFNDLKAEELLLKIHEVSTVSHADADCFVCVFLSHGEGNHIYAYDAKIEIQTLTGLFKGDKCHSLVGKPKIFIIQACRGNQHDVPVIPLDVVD
# Caspase-6, sequence (P55212 194-293 limits assumed): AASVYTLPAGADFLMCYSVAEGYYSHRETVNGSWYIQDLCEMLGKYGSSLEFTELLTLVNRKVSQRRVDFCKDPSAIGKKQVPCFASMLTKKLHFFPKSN
# [14] = target: T3, Sentrin-specific protease 7 (Homo sapiens, UniProt Q9BQF6); assay type: functional;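 note: Luminescence-based dose-response confirmation of ultra-high-throughput screening hits, measuring inhibition of SENP7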
# T3 sequence (Q9BQF6 whole entry): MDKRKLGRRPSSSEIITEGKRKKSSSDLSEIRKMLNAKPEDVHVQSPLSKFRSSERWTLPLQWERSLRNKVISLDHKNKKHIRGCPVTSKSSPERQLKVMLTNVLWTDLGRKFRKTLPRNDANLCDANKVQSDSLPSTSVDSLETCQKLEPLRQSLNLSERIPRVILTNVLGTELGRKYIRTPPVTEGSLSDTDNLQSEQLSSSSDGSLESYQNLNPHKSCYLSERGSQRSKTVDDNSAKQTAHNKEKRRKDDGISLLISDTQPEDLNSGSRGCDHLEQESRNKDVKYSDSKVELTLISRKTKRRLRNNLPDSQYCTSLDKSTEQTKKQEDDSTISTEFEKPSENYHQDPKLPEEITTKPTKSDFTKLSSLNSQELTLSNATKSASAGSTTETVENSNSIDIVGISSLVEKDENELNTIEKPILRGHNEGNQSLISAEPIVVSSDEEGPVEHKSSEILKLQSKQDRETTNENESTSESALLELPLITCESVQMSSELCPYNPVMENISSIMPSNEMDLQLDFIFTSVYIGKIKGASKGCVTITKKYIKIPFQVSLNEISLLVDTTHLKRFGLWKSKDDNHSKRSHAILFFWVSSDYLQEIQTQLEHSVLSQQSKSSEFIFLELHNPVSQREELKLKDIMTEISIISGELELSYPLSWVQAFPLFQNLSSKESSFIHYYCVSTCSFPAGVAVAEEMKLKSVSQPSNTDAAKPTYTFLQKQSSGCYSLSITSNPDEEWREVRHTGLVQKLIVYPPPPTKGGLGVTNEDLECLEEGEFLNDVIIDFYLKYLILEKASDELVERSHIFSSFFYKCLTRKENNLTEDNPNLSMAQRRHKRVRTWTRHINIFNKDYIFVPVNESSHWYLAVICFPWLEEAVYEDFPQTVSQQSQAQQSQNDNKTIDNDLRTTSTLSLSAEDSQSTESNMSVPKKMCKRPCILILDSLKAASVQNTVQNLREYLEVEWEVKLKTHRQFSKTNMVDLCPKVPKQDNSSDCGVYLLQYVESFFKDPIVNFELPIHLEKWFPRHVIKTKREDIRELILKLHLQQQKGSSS
# [15] = target: Dual specificity tyrosine-phosphorylation-regulated kinase 1A (Rattus norvegicus, UniProt Q63470); assay type: biochemical, Homo sapiens
# [16] = target: T4, Sentrin-specific protease 6 (Homo sapiens, UniProt Q9GZR1); assay type: functional;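 note: Luminescence-based dose-response confirmatory assay of SENP6 inhibition, following up an ultra-high-throughput screen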
# T4 sequence (Q9GZR1 whole entry): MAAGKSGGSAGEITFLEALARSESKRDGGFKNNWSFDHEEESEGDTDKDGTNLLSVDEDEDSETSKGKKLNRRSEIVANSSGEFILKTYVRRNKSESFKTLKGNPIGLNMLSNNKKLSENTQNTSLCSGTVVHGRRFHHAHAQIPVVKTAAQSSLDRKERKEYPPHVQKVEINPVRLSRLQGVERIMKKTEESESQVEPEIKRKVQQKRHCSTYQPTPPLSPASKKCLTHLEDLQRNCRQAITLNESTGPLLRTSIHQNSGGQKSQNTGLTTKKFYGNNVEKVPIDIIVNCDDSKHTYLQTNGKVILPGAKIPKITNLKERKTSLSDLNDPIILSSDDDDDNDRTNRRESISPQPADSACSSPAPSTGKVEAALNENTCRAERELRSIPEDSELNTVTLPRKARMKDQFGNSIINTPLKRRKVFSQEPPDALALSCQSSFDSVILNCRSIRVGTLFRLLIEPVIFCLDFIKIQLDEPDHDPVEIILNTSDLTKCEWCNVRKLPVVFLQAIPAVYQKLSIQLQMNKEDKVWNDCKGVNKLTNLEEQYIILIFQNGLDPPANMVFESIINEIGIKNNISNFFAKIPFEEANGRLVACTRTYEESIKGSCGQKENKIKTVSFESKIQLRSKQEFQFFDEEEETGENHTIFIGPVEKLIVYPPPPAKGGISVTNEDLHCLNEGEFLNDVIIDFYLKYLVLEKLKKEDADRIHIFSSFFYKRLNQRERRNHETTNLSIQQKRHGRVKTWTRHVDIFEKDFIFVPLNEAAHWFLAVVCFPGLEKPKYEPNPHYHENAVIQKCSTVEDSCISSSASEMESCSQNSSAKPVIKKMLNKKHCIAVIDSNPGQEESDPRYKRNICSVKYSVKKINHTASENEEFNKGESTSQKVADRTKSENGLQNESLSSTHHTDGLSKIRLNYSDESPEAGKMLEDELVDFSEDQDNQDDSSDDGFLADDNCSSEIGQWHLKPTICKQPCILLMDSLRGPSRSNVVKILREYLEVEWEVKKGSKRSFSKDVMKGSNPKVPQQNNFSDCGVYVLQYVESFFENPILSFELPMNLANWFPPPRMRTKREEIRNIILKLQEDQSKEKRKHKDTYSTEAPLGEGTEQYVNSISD
# [17] = target: T5, Sentrin-specific protease 8 (Homo sapiens, UniProt Q96LD8); assay type: functional;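 note: luminescence read-out of SENP8 inhibition, dose-response confirmation following an ultra-high-throughput screen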
# T5 sequence (Q96LD8 whole entry): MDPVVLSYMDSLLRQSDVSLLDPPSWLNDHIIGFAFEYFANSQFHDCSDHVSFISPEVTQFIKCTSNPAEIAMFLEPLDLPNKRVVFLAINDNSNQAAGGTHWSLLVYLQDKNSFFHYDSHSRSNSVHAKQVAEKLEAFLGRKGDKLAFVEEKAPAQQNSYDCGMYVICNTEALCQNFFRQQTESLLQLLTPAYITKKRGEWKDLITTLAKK
# Caspase-3 = target: T6, Caspase-3 (Homo sapiens, UniProt P42574); assay type: functional;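 note: Dose-response selectivity test against caspase-3 for candidate inhibitors of sentrin-specific proteases (SENPs)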
# T6 sequence (P42574 whole entry): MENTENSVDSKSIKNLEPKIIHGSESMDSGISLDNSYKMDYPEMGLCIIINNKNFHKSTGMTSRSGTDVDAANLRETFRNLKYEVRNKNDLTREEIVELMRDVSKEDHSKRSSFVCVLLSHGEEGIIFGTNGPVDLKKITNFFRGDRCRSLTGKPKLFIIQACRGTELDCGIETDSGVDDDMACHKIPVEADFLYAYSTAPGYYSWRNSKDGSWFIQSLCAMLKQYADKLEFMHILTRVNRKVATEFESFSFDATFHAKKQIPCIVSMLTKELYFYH
# [18] = target: Disintegrin and metalloproteinase domain-containing protein 17 (Homo sapiens, UniProt P78536); assay: exosite inhibitors of ADAM17, dose response, biochemical (AID 743260)
# Disintegrin and metalloproteinase domain-containing protein 17, sequence (P78536 whole entry, the tested form may be a part): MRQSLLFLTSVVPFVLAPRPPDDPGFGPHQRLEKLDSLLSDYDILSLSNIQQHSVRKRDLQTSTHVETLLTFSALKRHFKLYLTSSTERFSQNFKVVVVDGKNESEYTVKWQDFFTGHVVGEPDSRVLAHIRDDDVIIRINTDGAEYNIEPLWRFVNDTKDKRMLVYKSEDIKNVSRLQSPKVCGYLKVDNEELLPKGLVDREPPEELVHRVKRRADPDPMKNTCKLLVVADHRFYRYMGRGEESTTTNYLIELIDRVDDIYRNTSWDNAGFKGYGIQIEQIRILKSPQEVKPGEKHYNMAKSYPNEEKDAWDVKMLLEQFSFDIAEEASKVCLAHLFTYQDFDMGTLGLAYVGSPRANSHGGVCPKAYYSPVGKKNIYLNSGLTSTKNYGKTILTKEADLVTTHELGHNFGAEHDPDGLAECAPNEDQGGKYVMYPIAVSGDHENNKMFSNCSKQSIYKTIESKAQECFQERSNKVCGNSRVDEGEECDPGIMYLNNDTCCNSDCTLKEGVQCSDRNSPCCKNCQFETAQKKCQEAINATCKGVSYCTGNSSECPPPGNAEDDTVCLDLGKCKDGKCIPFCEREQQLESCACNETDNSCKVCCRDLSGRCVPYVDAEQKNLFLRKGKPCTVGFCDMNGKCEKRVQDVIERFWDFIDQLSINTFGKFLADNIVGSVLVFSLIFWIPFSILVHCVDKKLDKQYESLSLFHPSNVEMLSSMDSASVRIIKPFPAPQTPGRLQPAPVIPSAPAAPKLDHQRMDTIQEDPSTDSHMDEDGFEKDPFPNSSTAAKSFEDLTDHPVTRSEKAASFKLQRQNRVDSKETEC
# [19] = ADAM10 protease inhibitors, dose response, selectivity assay for ADAM17 exosite inhibitor project, biochemical, FRET peptide substrate, recombinant human ADAM10 (AID 743259);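 note: ADAM10 enzyme cleaving a FRET peptide substrate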
# HEK293 = assay: HEK293T cell cytotoxicity, dose response, cytotoxicity control, ATP luminescence, cherry-pick samples (AID 687005); assay type: functional, cell-based; settings: Homo sapiens;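 note: cells exposed to compound for 48 hours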
# [20] = HEK293 Cytotoxicity Assay Measured in Cell-Based System Using Plate Reader - 7071-01_Inhibitor_Dose_CherryPick_Activity_Set2.; assay type: functional
# HeLa = assay: HeLa cell cytotoxicity, dose response, cytotoxicity control, ATP luminescence, cherry-pick samples (AID 687004); assay type: functional, cell-based; settings: Homo sapiens
smiles,measurement,setting,value
COc1ccccc1NS(=O)(=O)c1cc(NC(=O)c2ccc(Cl)nc2)ccc1Cl,AC50,[1],3.12 µM (active)
same,AC50,[2],56.2 µM (active)
same,AC50,[3],21 µM (active)
same,AC50,[4],3.71 µM (active)
same,AC50,[5],11.3 µM (active)
COc1cc2c(cc1OC)C1CCN3C(=O)CCC3N1CC2 (stereo not drawn),EC50,Kallikrein-7,21.1 µM (inactive)
O=C(NC1=C(N2CCN(c3ccccc3)CC2)C(=O)c2ccccc2C1=O)c1ccccc1,AC50,[6],> 70 µM (inactive)
same,AC50,[7],> 70 µM (inactive)
O=C(Nc1nc2c(s1)CCCC2)c1cccs1,CC50,[8],> 50 µM (active)
C=CCOc1ccc(CN2CCC(CCOc3ccccc3)(C(=O)N3CCCC3)CC2)cc1Cl,AC50,[9],> 30 µM (inactive)
COc1ccccc1/N=N/c1c(O)[nH]c(=O)c(C#N)c1C,IC50,[10],> 100 µM (inactive)
same,IC50,[11],> 100 µM (inactive)
CCOC(=O)c1sc(NC(=O)Nc2cccc(Cl)c2)cc1C,EC50,Streptococcus,4.1 µM (active)
same,EC50,Streptokinase A,11.2 µM (active)
same,AC50,[12],14.7 µM (active)
same,EC50,[13],4.86 µM (active)
same,AC50,INS1,4.57 µM (active)
COc1cc2c(C#N)c(N3CCCC3)nc(N)c2c(N)n1,AC50,Caspase-6,12 µM (active)
same,IC50,[14],2.67 µM (active)
same,AC50,[15],5.72 µM (active)
same,IC50,[16],2.24 µM (active)
same,IC50,[17],2.64 µM (active)
same,IC50,Caspase-3,7.35 µM (active)
Cc1ccc(CC2(c3ccccc3)NC(=O)NC2=O)cc1 (stereo not drawn),IC50,[18],18.6 µM (inactive)
same,IC50,[19],> 69.4 µM (inactive)
CCCC#Cc1ccc2c(c1)O[C@H](CN(C)CCC)[C@H](C)CN([C@@H](C)CO)S2(=O)=O,AC50,HEK293,14.6 µM (active)
same,AC50,[20],14.6 µM (active)
same,AC50,HeLa,42.6 µM (active)
